# Reference: patent publication EP0103552B1, “Novel derivatives of guanine” (priority 1982, dated 1984)
# How the values were obtained:
# herpes simplex type 1 = experiment: plaque reduction assay, inhibition of virus multiplication in cell cultures; format: cell-based; settings: herpes simplex type 1 plaque on Vero cell mono-layers
# Protocol: The inhibition of herpesvirus by VIS 590 and VSA 687 has been measured as plaque reduction according to the following procedure. The plaque reduction assay for herpes simplex type 1 was performed on Vero (Green Monkey Kidney) cells as described by Ejercito et al., J. Gen. Virol. 2 (1968) 357. Monolayers on 5 cm petri dishes were used and after virus adsorption the compounds to be tested were added to-the medium.
# Vero cells = experiment: cellular toxicity, reduction in cell growth; format: cell-based, Green Monkey; settings: at 100 µM
# Protocol: (§1) The method used has been described by Stenberg (Biochemical Pharmacology, Vol. 30 (1980), 1005-1008). […] However, at this concentration, herpes virus multiplication was inhibited to more than 90% (see Table 1). Table 2. Cellular toxicity of VIS 590 expressed as percent reduction in cell growth after 48 h of incubation.
# [1] = cellular toxicity, reduction in cell growth; format: cell-based, Green Monkey; settings: monkey, vero cells; Conc. 100 µM; after 48 h of incubation; read-out: Percent reduction in growth of Vero cells, determined as cell number
# Protocol: as §1
SMILES,Inhibition % (herpes simplex type 1; Conc. 10 μ),effect on cell growth (in words) (Vero cells),"inhibition at 48 h, 100 µM [1]",Inhibition % (herpes simplex type 1; Conc. 35 μ)
"Nc1nc2c(ncn2CC(=O)CCO)c(=O)[nH]1 [VIS 590, 9-(2-oxo-4-hydroxybutyl)guanine]",35%,did not affect cell growth,0%,–
"Nc1nc2c(ncn2CC(=O)C(O)CO)c(=O)[nH]1 (stereo not shown) [VSA 687, 9-(2-oxo-3,4-dihydroxybutyl)guanine]",–,–,–,>90%
